Reference: patent US7241581B2, “Methods of identifying compounds that modulate IL-4 receptor-mediated IgE synthesis utilizing a c-MYC protein” (Rigel Pharmaceuticals, Inc., priority 2002, dated 2007)

Legend:
human c-Myc protein = target: T1, human c-Myc protein (Homo sapiens, UniProt P01106); test: Yeast two hybrid (YTH) interaction assay, β-galactosidase; assay type: binding
T1 construct: expressed in transfected cells; prey cDNA library made from the A5T4 reporter line (human BJAB B-cells)
Experimental: Potential binding partners for peptide BR10A1 wt were identified in a β-galactosidase yeast two-hybrid (YTH) assay using peptide BR10A1 wt as bait and a cDNA library constructed from the A5T4 reporter cell line as prey. Binding was assessed by β-galactosidase quantification using BetaFluor (Novagen) as a substrate. A negative interaction control (no cDNA fused downstream of the GAL4 activation domain sequence) was also run. A general outline of the YTH assay is illustrated in FIG. 5A. Following clustering, filtering to remove non-specific bait hits (e.g., GFP and BFP), singletons and clusters recognized by 10 or more cDNA baits (based upon historical YTH assays), and prioritization, 30 prey clones were identified as hits.
Potential targets identified in the YTH assay were reconfirmed as generally outlined in FIG. 6. The cDNA clones identified as hits in the YTH assay were purified and rescreened for interaction with the BR10A1 wt peptide in a YTH assay. The hit clones were also screened in a control assay for interaction with the BFP using a vector (pGBKT7) that contained only the BFP and not the BR10A1 peptide. At this stage, 25 putative target clones remained.
The interaction of BR10A1 wt peptide and its mutants with the clones identified as potential targets for the peptide BR10A1 wt was then quantified in a β-galactosidase YTH assay. The YTH assay was performed in the manner described above. A general outline of this YTH assay is illustrated in FIG. 5B. For each clone tested, an interaction profile was developed by comparing the β-galactosidase activity of each mutant to that of the wild type peptide as described above.
The interaction of selected IOF, ROF and LOF mutants with different polypeptides encoded by the putative target clones were quantified using the YTH assay described above. Based on the YTH assay, for each putative target, the mutants were categorized into the following four interaction categories: (1) reduction of interaction (ROI); (2) loss of interaction (LOI); (3) increase of interaction (IOI); and (4) interactionally neutral (N), by assessing the binding affinity ratio of the mutant peptide and the wild type peptide (β-gal activity of mutant/wild type) to the putative target. The selection criteria for categorizing the interactions is shown on FIG. 8.

germline ε promoter = test: Functional profile of BR10A1 wt and mutants in the A5T4 reporter cell line; assay type: cell-based, human; conditions: A5T4 reporter line
Experimental: Following infection, the library was enriched for cells expressing peptides that inhibit IL-4 induced ε transcription as generally outlined in the top half of FIG. 3 and sorted by FACS into single cell clones. The clones were then screened as generally illustrated in the lower half of FIG. 3. Briefly, for screening, each clone was divided into two populations and one population was treated with Dox (10 ng/ml). After 5 days, both populations were stimulated with IL-4 (final conc. 60 U/mL; PeptroTech, Inc.) and, after 3 more days, both populations were analyzed by FACS to measure BFP and GFP fluorescence. FACS data were converted to a “reporter ratio”, which is defined for this purpose as the ratio of the geometric mean of GFP fluorescence of the +IL-4/+Dox to the +IL-4/−Dox populations. Cells expressing a peptide that inhibits germline ε transcription have a reporter ratio of ≧1.1. A reporter ratio of ≧1.2 is indicative of strong inhibition.
The ability of peptide BR10A1 wt to inhibit germline ε transcription was confirmed in naive cells. Briefly, Phoenix cells were transfected with a retroviral vector encoding a BFP-BR10A1 wt peptide fusion as described in WO 99/58663 and WO 97/27213. Naïve A5T4 cells were infected with the resultant virions and grown for 3 days. The infected cells were stimulated with IL-4 (60 U/mL) and, after 3 days, the cells were assessed by FACS for BFP and GFP. […] The BFP fluorescence data corresponding to the BFP^+ and BFP^− populations are provided in Panel A. The GFP fluorescence data corresponding to the BFP^+ and BFP^− populations are presented in Panel B. The reporter ratio for this purpose is determined as the geometric mean of the GFP fluorescence of the BFP^− population divided by the geometric mean of the GFP fluorescence of the BFP^+ population. The reporter ratio for the BR10A1 in this re-infection assay was 1.27.
A collection of BR10A1 mutants was generated by replacing single or double amino acid residues in the sequence of BR10A1 wt with a different amino acid, typically an alanine or glycine, as described in copending application Ser. No.10/095,659, entitled Methods of Identifying Protein Targets, filed Mar. 8, 2002 . The functional profiles for the mutants derived from BR10A1 wt was obtained by constructing and screening for activity in the A5T4 reporter cell line in the manner described above. The activity of each mutant at the germline ε promoter is reflected in the reporter ratio as described above. The reporter ratios were the functional values that were used to develop the functional profiles. Measurement of the reporter ratios of the mutant peptides was carried out in a number of separate experiments, each time comparing the value of cells transfected with mutant peptide to that of cells transfected with control WT peptide done at the same time. The reporter ratios of the control WT peptide can vary depending upon a number of factors including the infectivity or the state of the infected cells at the time of infection.
TABLE 2 depicts the amino acid sequences (the dual alanine mutations are underlined) of the mutants tested and the measured reporter ratios when screening in the A5T4 reporter line.
Comparison of the interaction and functional profiles was performed by categorizing the mutants of BR10A1 based on the functional and interaction assays. Based on the reporter ratio, each mutant was categorized into one of four functional categories: (1) reduction of function (ROF); (2) loss of function (LOF); (3) increase of function (IOF) or (4) functionally neutral (N) as compared to the activity of the wild type peptide, here BR10A1 wt. As mentioned previously, cells expressing a peptide that inhibits germline ε transcription have reporter ratios of ≧1.1. Cells expressing a loss of function (LOF) mutant have a reporter ratio of <1.11. […] Functionally neutral mutants have reporter ratios that fall within ±50% of that of the BR10A1 wt peptide. […]

T1 sequence (P01106 whole entry): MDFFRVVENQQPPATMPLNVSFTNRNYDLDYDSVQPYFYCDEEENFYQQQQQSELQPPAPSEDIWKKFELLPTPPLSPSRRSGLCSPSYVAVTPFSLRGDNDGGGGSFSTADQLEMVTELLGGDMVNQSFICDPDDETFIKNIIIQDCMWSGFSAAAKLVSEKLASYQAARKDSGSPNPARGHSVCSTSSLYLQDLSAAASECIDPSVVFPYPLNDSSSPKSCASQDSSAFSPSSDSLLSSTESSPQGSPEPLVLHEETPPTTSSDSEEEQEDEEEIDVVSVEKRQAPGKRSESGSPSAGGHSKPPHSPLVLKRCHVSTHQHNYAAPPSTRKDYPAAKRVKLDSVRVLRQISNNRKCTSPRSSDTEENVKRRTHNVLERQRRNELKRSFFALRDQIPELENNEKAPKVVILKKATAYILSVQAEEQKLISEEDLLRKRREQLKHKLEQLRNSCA

binding to human c-Myc protein in yeast two hybrid interaction assay (human c-Myc protein): found to bind
Sequence: MQRRESCITRSVEEGWGLFYLGP (peptide encoded by random oligo-BR10A1wt) [wild-type peptide from random library, expressed in cells as BFP-peptide fusion]
Reporter Ratio (germline ε promoter; first value column (separate experiment with its own WT control)): 1.27
Reporter Ratio (germline ε promoter; fourth value column (separate experiment with its own WT control)): 1.35
Reporter Ratio (germline ε promoter; second value column (separate experiment with its own WT control)): 1.36
Reporter Ratio (germline ε promoter; separate experiment with its own WT control): 1.55
